# Measurements: patent US7799821B2, “Therapeutic compounds” (Allergan, Inc., priority 2004, dated 2010)
# Molecular target: T1, hEP4/Gqs5 (Homo sapiens, UniProt P35408)
# T1 construct: expressed in transfected cells; host or cells: HEK-293(EBNA)
# Test: FLIPR calcium signal, hEP4
# Type: cell-based
# Details: FLIPR Ca2+ signal, HEK-293(EBNA); read-out: FUNCTIONAL EC50 HEP4
# Method: (§1) HEK-293(EBNA) cells, stably expressing one type or subtype of recombinant human prostaglandin receptors (prostaglandin receptors expressed: hDP/Gqs5; hEP1; hEP2/Gqs5; hEP3A/Gqi5; hEP4/Gqs5; hFP; hIP; hTP), were cultured in 100 mm culture dishes in high-glucose DMEM medium containing 10% fetal bovine serum, 2 mM 1-glutamine, 250 μg/ml geneticin (G418) and 200 μg/ml hygromycin B as selection markers, and 100 units/ml penicillin G, 100 μg/ml streptomycin and 0.25 μg/ml amphotericin B. • (b) Calcium Signal Studies on the FLIPR™
# (§2) Cells were seeded at a density of 5×10^4 cells per well in Biocoat® Poly-D-lysine-coated black-wall, clear-bottom 96-well plates (Becton-Dickinson) and allowed to attach overnight in an incubator at 37° C. Cells were then washed two times with HBSS-HEPES buffer (Hanks Balanced Salt Solution without bicarbonate and phenol red, 20 mM HEPES, pH 7.4) using a Denley Cellwash plate washer (Labsystems). After 45 minutes of dye-loading in the dark, using the calcium-sensitive dye Fluo-4 AM at a final concentration of 2 μM, plates were washed four times with HBSS-HEPES buffer to remove excess dye leaving 100 μl in each well. Plates were re-equilibrated to 37° C. for a few minutes.
# (§3) Cells were excited with an Argon laser at 488 nm, and emission was measured through a 510-570 nm bandwidth emission filter (FLIPR™, Molecular Devices, Sunnyvale, Calif.). Drug solution was added in a 50 μl volume to each well to give the desired final concentration. The peak increase in fluorescence intensity was recorded for each well. On each plate, four wells each served as negative (HBSS-HEPES buffer) and positive controls (standard agonists: BW245C (hDP); PGE2 (hEP1; hEP2/Gqs5; hEP3A/Gqi5; hEP4/Gqs5); PGF2α (hFP); carbacyclin (hIP); U-46619 (hTP), depending on receptor). The peak fluorescence change in each drug-containing well was then expressed relative to the controls.
# (§4) Compounds were tested in a high-throughput (HTS) or concentration-response (CoRe) format. In the HTS format, forty-four compounds per plate were examined in duplicates at a concentration of 10^−5 M. To generate concentration-response curves, four compounds per plate were tested in duplicates in a concentration range between 10^−5 and 10^−11 M. The duplicate values were averaged. In either, HTS or CoRe format each compound was tested on at least 3 separate plates using cells from different passages to give an n≧3.
# T1 sequence (P35408 whole entry): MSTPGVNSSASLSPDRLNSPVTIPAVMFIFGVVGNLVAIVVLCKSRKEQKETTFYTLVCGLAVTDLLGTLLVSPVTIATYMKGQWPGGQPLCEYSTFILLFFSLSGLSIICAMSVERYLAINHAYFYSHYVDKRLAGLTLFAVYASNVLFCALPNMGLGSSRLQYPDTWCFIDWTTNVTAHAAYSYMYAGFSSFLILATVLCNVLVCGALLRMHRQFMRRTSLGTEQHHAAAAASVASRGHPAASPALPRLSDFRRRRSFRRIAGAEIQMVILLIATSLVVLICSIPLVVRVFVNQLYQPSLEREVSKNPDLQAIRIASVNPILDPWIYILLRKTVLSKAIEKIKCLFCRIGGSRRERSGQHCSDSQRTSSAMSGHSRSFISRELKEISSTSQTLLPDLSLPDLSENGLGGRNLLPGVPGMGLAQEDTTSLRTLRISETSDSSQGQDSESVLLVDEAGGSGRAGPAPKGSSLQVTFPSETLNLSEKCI
row,EC50 [µM],SMILES
1,> 10,COC(=O)CCC/C=C\C[C@@H]1[C@@H](c2ccc(C(C)(C)CO)cc2)[C@H](O)C[C@H]1Cl [drawing 113]
2,> 10,COC(=O)CCCCCC[C@@H]1[C@@H](c2ccc(C(O)C(C)C)cc2)[C@H](O)C[C@H]1Cl (stereo partly shown)
3,> 10,CC(C)(CO)c1ccc([C@@H]2[C@@H](CCCCCCC(=O)O)[C@H](Cl)C[C@H]2O)cc1
4,> 10,CCCC1(C(O)c2cccc([C@H]3[C@H](O)CC(=O)[C@@H]3C/C=C\CCCC(=O)NCC)c2)CCC1 (stereo partly shown)
5,> 10,COC(=O)CCCCCC[C@@H]1[C@@H](c2ccc(C(O)C(C)(C)C)cc2)[C@H](O)C[C@H]1Cl (stereo partly shown) [drawing 131]
6,> 10,CC(C)(C)C(O)c1ccc([C@@H]2[C@@H](CCCCCCC(=O)O)[C@H](Cl)C[C@H]2O)cc1 (stereo partly shown)
7,26.3,COC(=O)CCCCCC[C@@H]1[C@@H](c2ccc(C(C)(C)CO)cc2)[C@H](O)C[C@H]1Cl [drawing 115]
8,> 10,COC(=O)CCC/C=C\C[C@H]1C(=O)C[C@@H](O)[C@@H]1c1ccc(C(O)C2CCCCC2)cc1 (stereo partly shown)
9,> 10,COC(=O)CCC/C=C\C[C@@H]1[C@@H](c2ccc(C(O)C(C)C)cc2)[C@H](O)C[C@H]1Cl (stereo partly shown)
10,> 10,COC(=O)CCCCCC[C@@H]1[C@@H](c2ccc(C(C)(C)CO)cc2)[C@H](O)C[C@H]1Cl [drawing 119]
11,> 10,COC(=O)CCCCCC[C@@H]1[C@@H](c2ccc(C(O)C(C)(C)C)cc2)[C@H](O)C[C@H]1Cl (stereo partly shown) [drawing 133]
12,> 10,COC(=O)CCCCCC[C@@H]1[C@@H](c2ccc(CO)cc2)[C@H](O)C[C@H]1Cl

# Same assay, conditions: read-out: FUNCTIONAL Ca2+ EC50 HEP4
row,EC50 [µM],SMILES
1,> 10,CCCCCC(O)c1ccc([C@H]2CCC(=O)[C@@H]2CCCc2ccc(C(=O)O)s2)cc1 (stereo partly shown)
2,> 10,CCCC1([C@@H](O)c2ccc([C@H]3CCC(=O)[C@@H]3C/C=C\CCCC(=O)O)cc2)CCC1 [drawing 194]

# Molecular target: T2, human EP2 receptors (Homo sapiens, UniProt P43116)
# T2 construct: expressed in transfected cells; host or cells: HEK 293
# T2 sequence (P43116 whole entry): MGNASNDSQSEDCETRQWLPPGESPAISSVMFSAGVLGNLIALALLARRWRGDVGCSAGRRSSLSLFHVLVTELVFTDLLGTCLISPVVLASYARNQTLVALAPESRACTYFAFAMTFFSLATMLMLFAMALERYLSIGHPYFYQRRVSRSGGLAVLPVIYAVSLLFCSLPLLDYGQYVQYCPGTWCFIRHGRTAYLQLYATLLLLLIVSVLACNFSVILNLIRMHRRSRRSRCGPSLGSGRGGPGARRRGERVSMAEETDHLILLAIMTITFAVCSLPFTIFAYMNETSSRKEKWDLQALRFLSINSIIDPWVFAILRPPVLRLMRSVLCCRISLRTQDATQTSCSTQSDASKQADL
# Test: Competition radioligand binding ([3H]PGE2), EP2
# Details: read-out: BINDING IC50 HEP2
# Method: Competition binding experiments were performed in a medium containing Hank's balanced salt solution, […], membranes (˜60 μg protein) or 2×10^5 cells from HEK 293 cells stably expressing human EP2 receptors, [^3H]PGE2 (10 nM) and various concentrations of test compounds in a total volume of 300 μl. Reaction mixtures were incubated at 23° C. for 60 min, and were filtered over Whatman GF/B filters under vacuum. Filters were washed three times with 5 ml ice-cold buffer containing 50 mM Tris/HCl (pH 7.3). Non-specific binding was estimated in the presence of excess unlabeled PGE2 (10 μM). Binding data fitted to the binding model for a single class of binding sites, using nonlinear regression analysis. IC50 values thus obtained were converted to Ki using the equation of Ki=(IC50/(1+[L]/KD) where [L] represents PGE2 concentration (10 nM) and KD the dissociation constant for [^3H]PGE2 at human EP2 receptors (40 nM).
# HEK-293 cells stably expressing the human or feline FP receptor, or EP1, EP2, or EP4 receptors were washed with TME buffer, scraped from the bottom of the flasks, and homogenized for 30 sec using a Brinkman PT 10/35 polytron. TME buffer was added to achieve a final 40 ml volume in the centrifuge tubes (the composition of TME is 100 mM TRIS base, 20 mM MgCl2, […]; 10N HCl is added to achieve a pH of 7.4).
# The cell homogenate was centrifuged at 19000 r.p.m. for 20 min at 4° C. using a Beckman Ti-60 rotor. The resultant pellet was resuspended in TME buffer to give a final 1 mg/ml protein concentration, as determined by Biorad assay. Radioligand binding competition assays vs. [^3H-]17 —phenyl PGF2α (5 nM) were performed in a 100 μl volume for 60 min. Binding reactions were started by adding plasma membrane fraction. The reaction was terminated by the addition of 4 ml ice-cold TRIS-HCl buffer and rapid filtration through glass fiber GF/B filters using a Brandel cell harvester. The filters were washed 3 times with ice-cold buffer and oven dried for one hour.
# [^3H-] PGE2 (specific activity 180 Ci mmol) was used as the radioligand for EP receptors. [^3H] 17-phenyl PGF2α was employed for FP receptor binding studies. Binding studies employing EP1, EP2, EP4 and FP receptors were performed in duplicate in at least three separate experiments. A 200 μl assay volume was used. Incubations were for 60 min at 25° C. and were terminated by the addition of 4 ml of ice-cold 50 mM TRIS-HCl, followed by rapid filtration through Whatman GF/B filters and three additional 4 ml washes in a cell harvester (Brandel). Competition studies were performed using a final concentration of 5 nM [^3H]—PGE2, or 5 nM [^3H] 17-phenyl PGF2α and non-specific binding determined with 10^−5M of unlabeled PGE2, or 17-phenyl PGF2α, according to receptor subtype studied.
row,IC50 [µM],SMILES
1,18.7,CC(C)(CO)c1ccc([C@H]2[C@H](O)CC(=O)[C@@H]2CCCCCCC(=O)O)cc1
2,48.8,COC(=O)CCC/C=C\C[C@@H]1[C@@H](c2ccc(C(C)(C)CO)cc2)[C@H](O)C[C@H]1Cl [drawing 117]
3,13.2,O=C(O)CCC/C=C\C[C@@H]1[C@@H](c2ccc(CO)cc2)[C@H](O)C[C@H]1Cl
4,5.2,CCCC1(C(O)c2cccc([C@@H]3[C@@H](Cc4cccc(OCC(=O)O)c4)[C@H](Cl)C[C@H]3O)c2)CCC1 (stereo partly shown)
5,2.28,O=C(O)CCC/C=C\C[C@H]1C(=O)C[C@@H](O)[C@@H]1c1ccc2c(c1)CCC2O (stereo partly shown)
6,8.95,CC(C)(CO)c1ccc([C@@H]2[C@@H](CCCCCCC(=O)O)[C@H](Cl)C[C@H]2O)cc1
7,3.63,CC(C)(C)C(O)c1ccc([C@@H]2[C@@H](CCCCCCC(=O)O)[C@H](Cl)C[C@H]2O)cc1 (stereo partly shown)
8,4.19,CC(C)(CO)c1ccc([C@@H]2[C@@H](C/C=C\CCCC(=O)O)[C@H](Cl)C[C@H]2O)cc1 [drawing 118]

# Molecular target: T3, hEP2/Gqs5 (Homo sapiens, UniProt P43116)
# T3 construct: expressed in transfected cells; host or cells: HEK-293(EBNA)
# T3 sequence (P43116 whole entry): as above
# Test: FLIPR calcium signal, hEP2
# Type: cell-based
# Details: FLIPR Ca2+ signal, HEK-293(EBNA); read-out: FUNCTIONAL EC50 HEP2
# Method: as §1, §2, §3, §4
row,EC50 [µM],SMILES
1,0.526,CC(C)(CO)c1ccc([C@H]2[C@H](O)CC(=O)[C@@H]2CCCCCCC(=O)O)cc1
2,> 10,COC(=O)CCC/C=C\C[C@@H]1[C@@H](c2ccc(C(C)(C)CO)cc2)[C@H](O)C[C@H]1Cl [drawing 117]
3,0.546,CCCC1(C(O)c2ccc([C@@H]3[C@@H](CCCCCCC(=O)O)[C@H](Cl)C[C@H]3O)cc2)CCC1 (stereo partly shown)
4,3.84,O=C(O)COC/C=C\C[C@@H]1[C@@H](c2ccc(C(O)C3CCCCC3)cc2)[C@H](O)C[C@H]1Cl (stereo partly shown)
5,0.266,CCCC1(C(O)c2cccc([C@@H]3[C@@H](Cc4cccc(OCC(=O)O)c4)[C@H](Cl)C[C@H]3O)c2)CCC1 (stereo partly shown)
6,> 10,COC(=O)CCCCCC[C@@H]1[C@@H](c2ccc(C(O)C(C)C)cc2)[C@H](O)C[C@H]1Cl (stereo partly shown)
7,0.405,O=C(O)CCC/C=C\C[C@H]1C(=O)C[C@@H](O)[C@@H]1c1ccc2c(c1)CCC2O (stereo partly shown)
8,0.708,CC(C)(CO)c1ccc([C@@H]2[C@@H](CCCCCCC(=O)O)[C@H](Cl)C[C@H]2O)cc1
9,> 10,CCCC1(C(O)c2cccc([C@H]3[C@H](O)CC(=O)[C@@H]3C/C=C\CCCC(=O)NCC)c2)CCC1 (stereo partly shown)
10,5,COC(=O)CCCCCC[C@@H]1[C@@H](c2ccc(C(O)C(C)(C)C)cc2)[C@H](O)C[C@H]1Cl (stereo partly shown) [drawing 131]
11,1.27,CC(C)(C)C(O)c1ccc([C@@H]2[C@@H](CCCCCCC(=O)O)[C@H](Cl)C[C@H]2O)cc1 (stereo partly shown)
12,> 10,COC(=O)CCCCCC[C@@H]1[C@@H](c2ccc(C(C)(C)CO)cc2)[C@H](O)C[C@H]1Cl [drawing 115]
13,> 10,COC(=O)CCC/C=C\C[C@H]1C(=O)C[C@@H](O)[C@@H]1c1ccc(C(O)C2CCCCC2)cc1 (stereo partly shown)
14,> 10,COC(=O)CCC/C=C\C[C@@H]1[C@@H](c2ccc(C(O)C(C)C)cc2)[C@H](O)C[C@H]1Cl (stereo partly shown)
15,> 10,COC(=O)CCCCCC[C@@H]1[C@@H](c2ccc(C(C)(C)CO)cc2)[C@H](O)C[C@H]1Cl [drawing 119]
16,0.173,CC(C)(CO)c1ccc([C@@H]2[C@@H](C/C=C\CCCC(=O)O)[C@H](Cl)C[C@H]2O)cc1 [drawing 118]
17,6.58,COC(=O)CCCCCC[C@@H]1[C@@H](c2ccc(C(O)C(C)(C)C)cc2)[C@H](O)C[C@H]1Cl (stereo partly shown) [drawing 133]

# Same assay, conditions: read-out: FUNCTIONAL Ca2+ EC50 HEP2
row,EC50 [µM],SMILES
1,> 10,CCCC1([C@@H](O)c2ccc([C@H]3CCC(=O)[C@@H]3C/C=C\CCCC(=O)O)cc2)CCC1 [drawing 194]
